The values below come from paper PMC5063506, “A Novel Class of Small Molecule Agonists with Preference for Human over Mouse TLR4 Activation” (PLoS ONE, 2016).

The subject of one assay is C57BL/6 w.t. BMDCs. The assay is described as follows: Cytokine induction in BMDCs of w.t. C57BL/6 mice. Format: cell-based, mouse. The following applies: 24 h, 1 μg/ml TLR4 agonists, 2 μM R848. The text has this:
(§1) Femur/tibia bones from w.t. C57BL/6, TLR4/MD2 KO, and hTLR4/MD2 KIKO mice were soaked in 10% FBS-RPMI. Muscle and fat tissue was stripped off from the bones with a scalpel, then, bone pairs from individual mice were transferred to 100 mm petri dishes. Femur and tibia bones were separated and the ends cut with dissecting scissors so that bone marrow cells (BMCs) could be removed by flushing the interior of the bones using a 21 G needle and warm 10% FBS-RPMI. BMCs were passed through a 70 μm strainer, followed by RBC lysis. BMCs were cultured in a 70 mm flask for 24 h in the presence of 10 ng/ml (200 unit/ml) of mGM-CSF. Non-adherent cells were collected, washed, and seeded in a 175 cm flask in the presence of 20 ng/ml of mGM-CSF. Every two days, the cells were fed with fresh media and 20 ng/ml mGM-CSF. On day 9, cells were harvested, washed, and stained for CD11c/CD11b expression to determine BMDC density. BMDCs were cultured at 50,000 cells/well for 24 h with 1 μg/ml MPL, LPS, Ugi compounds, or 2 μM R848 (InVivogen).
(§2) Fig 10 Ugi compounds activate mouse BMDCs that express human TLR4/MD2. Bone marrow cells were isolated from femur/tibia bones of w.t. […] BMDCs were harvested at day 9, washed, counted, and stimulated in vitro for 24 h with 1 μg/ml TLR4 agonists and 2 μM R848. SNs were analyzed via mouse MILLIPLEX kits. Data are expressed as the means of 2 mice and are representative of 2 studies.

Another assay relates to TLR4/MD2 KO BMDCs. The assay is described as follows: Cytokine induction in BMDCs of mTLR4/MD2 knockout mice. In kind it is cell-based, mouse. To be noted: 24 h, 1 μg/ml TLR4 agonists, 2 μM R848.
Text: as §1, §2

As for `CCOCc1nc2c(N)nc3ccccc3c2n1CC(C)(C)O` [R848], the “cytokine response of C57BL/6 w.t. BMDCs” value in the assay with C57BL/6 w.t. BMDCs is given as “strong response”. In addition, the “cytokine response of mTLR4/MD2 knockout BMDCs” value in the assay with TLR4/MD2 KO BMDCs was “retained”.
